Test results: US9393221B2, “Methods and compounds for reducing intracellular lipid storage” (THE GENERAL HOSPITAL CORPORATION, priority 2011, dated 2016)
Counter-ions that a name gives are not always drawn.

The molecules below were run on ATGL-KO iPSCs (assay: High throughput iPSC chemical screening, Oil Red O (ORO) lipid accumulation). Conditions: not given.
Type: cell-based, mouse
For Z-score in this document: test concentration or dose not given here.

Structure (SMILES) | Z-score
CC(N)C(O)c1ccccc1 (stereo not shown) [Phenylpropanolamine hydrochloride] | 0.2625
C[n+]1ccccc1/C=N/O [Pralidoxime chloride] | 1.281
CC(C)c1cccc(C(C)C)c1O [Propofol] | −0.9649

Same assay, conditions: glycolytic switch compounds

Structure (SMILES) | Rank in normalized ORO score from screen
CC(COc1ccccc1)N(CCCl)Cc1ccccc1 (stereo not shown) [Phenoxybenzamine hydrochloride] | 702
O=c1[nH]c2ccccc2n1C1CCN(CCCC(c2ccc(F)cc2)c2ccc(F)cc2)CC1 [Pimozide] | 330
CCN1CCCC(OC(=O)C(c2ccccc2)c2ccccc2)C1 (stereo not shown) [Piperidolate hydrochloride] | 449
CC(=O)[C@H]1CC[C@H]2[C@@H]3CC=C4C[C@@H](O)CC[C@]4(C)[C@H]3CC[C@]12C [Pregnenolone] | 924

Same assay, conditions: normalized ORO level vs DMSO-treated cells; compound present during 7 days differentiation, 96-well; negative = decrease in lipid accumulation

Structure (SMILES) | Z-score
CC(COc1ccccc1)N(CCCl)Cc1ccccc1 (stereo not shown) [Phenoxybenzamine hydrochloride] | 0.2031
CN1C(=O)CC(c2ccccc2)C1=O (stereo not shown) [Phensuximide] | 0.02844
Cc1ccc(N(CC2=NCCN2)c2cccc(O)c2)cc1 [Phentolamine hydrochloride] | 0.3245
O=C(O)c1ccccc1C(=O)Nc1ccc(S(=O)(=O)Nc2nccs2)cc1 [Phthalylsulfathiazole] | −1.0074
COc1ccc(C(=O)NCc2cccnc2)cc1C(=O)NCc1cccnc1 [Picotamide monohydrate] | −1.2123
C=C(C)[C@@H]1[C@H]2OC(=O)[C@@H]1[C@]1(O)C[C@H]3O[C@]34C(=O)O[C@H]2[C@]14C [Picrotoxinin] | −0.1703
CC[C@@H]1C(=O)OC[C@@H]1Cc1cncn1C [Pilocarpine nitrate] | −0.2819
CN1CCC(=C2c3ccccc3Sc3ccccc32)CC1 [Pimethixene maleate] | −0.4872
O=c1[nH]c2ccccc2n1C1CCN(CCCC(c2ccc(F)cc2)c2ccc(F)cc2)CC1 [Pimozide] | −0.7483
CC(N/C(=N\C#N)Nc1ccncc1)C(C)(C)C (stereo not shown) [Pinacidil] | 0.3162
CC(C)NCC(O)COc1cccc2[nH]ccc12 (stereo not shown) [Pindolol] | 0.03656
CCn1cc(C(=O)O)c(=O)c2cnc(N3CCNCC3)nc21 [Pipemidic acid] | −1.4165
CC[N+]1(C)CCCC(OC(=O)C(O)(c2ccccc2)c2ccccc2)C1 (stereo not shown) [Pipenzolate bromide] | −1.06
CC(=O)c1ccc2c(c1)N(CCCN1CCC(CCO)CC1)c1ccccc1S2 [Piperacetazine] | −0.4798
CCN1CCN(C(=O)N[C@@H](C(=O)N[C@@H]2C(=O)N3[C@@H]2SC(C)(C)[C@@H]3C(=O)O)c2ccccc2)C(=O)C1=O [Piperacillin sodium salt] | −0.9149
CCN1CCCC(OC(=O)C(c2ccccc2)c2ccccc2)C1 (stereo not shown) [Piperidolate hydrochloride] | −0.4895
O=C(/C=C/C=C/c1ccc2c(c1)OCO2)N1CCCCC1 [Piperine] | 1.588
COc1cc(/C=C/C(=O)N2CCC=CC2=O)cc(OC)c1OC [Piperlongumine] | 16.6479
NC(=O)CN1CCCC1=O [Piracetam] | 0.8038
CN1CCN(CC(=O)N2c3ccccc3C(=O)Nc3cccnc32)CC1 [Pirenzepine dihydrochloride] | −1.096
NS(=O)(=O)c1cc(C(=O)O)cc(N2CCCC2)c1Oc1ccccc1 [Piretanide] | 0.2521
c1cnc(N2CCN(Cc3ccc4c(c3)OCO4)CC2)nc1 [Piribedil hydrochloride] | −1.3522
CCn1cc(C(=O)O)c(=O)c2cnc(N3CCCC3)nc21 [Piromidic acid] | 0.2604
CN1C(C(=O)Nc2ccccn2)=C(O)c2ccccc2S1(=O)=O [Piroxicam] | 0.7254
CC(C)(C)C(=O)OCOC(=O)[C@@H]1N2C(=O)[C@@H](NC(=O)[C@H](N)c3ccccc3)[C@H]2SC1(C)C [Pivampicillin] | −1.1929

Structure (SMILES) | Z-score
CC(C)(C)C(=O)OCOC(=O)[C@@H]1N2C(=O)[C@@H](/N=C/N3CCCCCC3)[C@H]2SC1(C)C [Pivmecillinam hydrochloride] | −0.219
COc1cc([C@@H]2c3cc4c(cc3[C@H](O)[C@H]3COC(=O)[C@H]23)OCO4)cc(OC)c1OC [Podophyllotoxin] | 46.4771
CC(=O)Nc1ccc(OCC(O)CNC(C)C)cc1 (stereo not shown) [Practolol] | −0.3373
CCCCOc1ccc(OCCCN2CCOCC2)cc1 [Pramoxine hydrochloride] | 0.5195
O=C(C1CCCCC1)N1CC(=O)N2CCc3ccccc3C2C1 (stereo not shown) [Praziquantel] | −0.5159
COc1cc2nc(N3CCN(C(=O)c4ccco4)CC3)nc(N)c2cc1OC [Prazosin hydrochloride] | 0.6597
CCOC(=O)O[C@]1(C(=O)COC(=O)CC)CC[C@H]2[C@@H]3CCC4=CC(=O)C=C[C@]4(C)[C@H]3[C@@H](O)C[C@@]21C [Prednicarbate] | −0.9408
C[C@]12C=CC(=O)C=C1CC[C@@H]1[C@@H]2[C@@H](O)C[C@@]2(C)[C@H]1CC[C@]2(O)C(=O)CO [Prednisolone] | −0.8986
C[C@]12C=CC(=O)C=C1CC[C@@H]1[C@@H]2C(=O)C[C@@]2(C)[C@H]1CC[C@]2(O)C(=O)CO [Prednisone] | 0.05393
CC(=O)[C@H]1CC[C@H]2[C@@H]3CC=C4C[C@@H](O)CC[C@]4(C)[C@H]3CC[C@]12C [Pregnenolone] | 1.076
CCCNC(C)C(=O)Nc1ccccc1C (stereo not shown) [Prilocaine hydrochloride] | −1.2624
COc1cc(NC(C)CCCN)c2ncccc2c1 (stereo not shown) [Primaquine diphosphate] | 5.51
CCC1(c2ccccc2)C(=O)NCNC1=O [Primidone] | −0.0045
CCCC(C(=O)OCCN(CC)CC)(c1ccccc1)c1ccccc1 [Proadifen hydrochloride] | −1.1876
CCCN(CCC)S(=O)(=O)c1ccc(C(=O)O)cc1 [Probenecid] | 0.754
CC(C)(Sc1cc(C(C)(C)C)c(O)c(C(C)(C)C)c1)Sc1cc(C(C)(C)C)c(O)c(C(C)(C)C)c1 [Probucol] | 1.626
CCN(CC)CCNC(=O)c1ccc(N)cc1 [Procainamide hydrochloride] | −0.2319
CCN(CC)CCOC(=O)c1ccc(N)cc1 [Procaine hydrochloride] | −0.5215
CNNCc1ccc(C(=O)NC(C)C)cc1 [Procarbazine hydrochloride] | 1.675
CN1CCN(CCCN2c3ccccc3Sc3ccc(Cl)cc32)CC1 [Prochlorperazine dimaleate] | 1.82
OC(CCN1CCCC1)(c1ccccc1)C1CCCCC1 (stereo not shown) [Procyclidine hydrochloride] | −0.6071
CC(=O)[C@H]1CC[C@H]2[C@@H]3CCC4=CC(=O)CC[C@]4(C)[C@H]3CC[C@]12C [Progesterone] | 2.344
CCCN(CCC)C(=O)C(CCC(=O)O)NC(=O)c1ccccc1 (stereo not shown) [Proglumide] | 0.1235
[H]/N=C(\N/C(=N/[H])Nc1ccc(Cl)cc1)NC(C)C [Proguanil hydrochloride] | 16.0329
CN(C)CCCN1c2ccccc2Sc2ccccc21 [Promazine hydrochloride] | 0.01386

Structure (SMILES) | Z-score
CC(CN1c2ccccc2Sc2ccccc21)N(C)C (stereo not shown) [Promethazine hydrochloride] | −1.4251
CC(C)NCC(O)c1ccc2ccccc2c1 (stereo not shown) [Pronethalol hydrochloride] | −0.9002
CCCNCC(O)COc1ccccc1C(=O)CCc1ccccc1 (stereo not shown) [Propafenone hydrochloride] | −0.6438
CC(C)[N+](C)(CCOC(=O)C1c2ccccc2Oc2ccccc21)C(C)C [Propantheline bromide] | −0.9862
CCCOc1ccc(C(=O)OCCN(CC)CC)cc1N [Proparacaine hydrochloride] | 0.9367
CC[N+](C)(CC)CCC[n+]1c(-c2ccccc2)c2cc(N)ccc2c2ccc(N)cc21.[I-].[I-] [Propidium iodide] | 4.014
CCCOc1cc(N)ccc1C(=O)OCCN(CC)CC [Propoxycaine hydrochloride] | −0.3049
CC(C)NCC(O)COc1cccc2ccccc12 (stereo not shown) [Propranolol hydrochloride] | 2.05
CCCc1cc(=O)[nH]c(=S)[nH]1 [Propylthiouracil] | −0.0857
C[C@@H]1O[C@@H](O[C@@H]2C=C3CC[C@@H]4[C@H](CC[C@]5(C)[C@@H](c6ccc(=O)oc6)CC[C@]45O)[C@@]3(C)CC2)[C@H](O)[C@H](O)[C@H]1O [Proscillaridin A] | −1.0698
CC[C@@H](C)C(=O)O[C@H]1[C@H](O)[C@H]2[C@@H](CN3C[C@@H](C)CC[C@H]3[C@@]2(C)O)[C@@H]2C[C@]34O[C@]5(O)[C@@H](OC(=O)[C@@](C)(O)CC)CC[C@@]3(C)[C@@H]5[C@@H](OC(C)=O)[C@@H](OC(C)=O)[C@H]4[C@@]21O [Protoveratrine A] | 1.895
CNCCCC1c2ccccc2C=Cc2ccccc21 [Protriptyline hydrochloride] | −0.1298
CC(O)Cn1cnc2c1c(=O)n(C)c(=O)n2C (stereo not shown) [Proxyphylline] | −0.7317
CN1[C@@H]2CCC[C@H]1CC(=O)C2.Cl [Pseudopelletierine hydrochloride] | 0.1911
COc1ccc(C[C@H](N)C(=O)N[C@H]2[C@@H](O)[C@H](n3cnc4c(N(C)C)ncnc43)O[C@@H]2CO)cc1 [Puromycin dihydrochloride] | 74.4112
NC(=O)c1cnccn1 [Pyrazinamide] | −1.0312
Cc1ncc(CO)c(CO)c1O.Cl [Pyridoxine hydrochloride] | 1.366
COc1ccc(CN(CCN(C)C)c2ccccn2)cc1 [Pyrilamine maleate] | −1.3015
CCc1nc(N)nc(N)c1-c1ccc(Cl)cc1 [Pyrimethamine] | 2.959
CCC1(CC)C(=O)C=CNC1=O [Pyrithyldione] | 0.5042
O.O.O=c1c(O)c(-c2ccc(O)c(O)c2)oc2cc(O)cc(O)c12 [Quercetine dihydrate] | −0.8659
CCN(CC)CCCC(C)Nc1c2ccc(Cl)cc2nc2ccc(OC)cc12 (stereo not shown) [Quinacrine dihydrochloride dihydrate] | 0.141
CCC1NC(=O)c2cc(S(N)(=O)=O)c(Cl)cc2N1 (stereo not shown) [Quinethazone] | −0.4993
O=C(O)[C@]1(O)C[C@@H](O)[C@@H](O)[C@H](O)C1 [Quinic acid] | 1.0976
C=C[C@H]1C[N@@]2CC[C@H]1C[C@@H]2[C@@H](O)c1ccnc2ccc(OC)cc12 [Quinidine hydrochloride monohydrate] | 6.798
